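Each compound was tested at five concentrations against cells in 96-well plates for 48 hours. GI50 is the concentration that inhibits growth by half.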 Activity calls are given as the source filed them. Rule as the data show it: active = GI50 up to about 1.1 µM and inactive = higher.

Among the test systems are 786-0; ACHN; BT-549; CCRF-CEM; DU-145; HCT-15; HOP-62; Hs-578T; KM12; M14; MCF7; MOLT-4; NCI-H23; NCI-H460; NCI/ADR-RES; SK-MEL-5; SN12C; T47D; SF-295; SK-MEL-2.
What all share (assay): NCI anticancer screen, dose series, 48 h

`C=C1CCC2CC1C(C(=O)c1c[nH]c3ccccc13)=NC2(C)C` (stereo unspecified): the GI50 in the experiment with 786-0 was > 100 µM (inactive); in the experiment on ACHN, > 100 µM (inactive); with BT-549 it was > 100 µM (inactive); in the experiment with CCRF-CEM, > 100 µM (inactive); in the experiment on DU-145 it was > 100 µM (inactive); with HCT-15, above 100 µM. In addition, the GI50 in the experiment on HOP-62, with Hs-578T, in the experiment with KM12, in the experiment on M14, with MCF7 and in the experiment with MOLT-4 was > 100 µM (inactive) throughout. Moreover, the GI50 was > 100 µM (inactive) in the experiment on NCI-H23; > 100 µM (inactive) in the experiment on NCI-H460; > 100 µM (inactive) in the experiment on NCI/ADR-RES; > 100 µM (inactive) with SK-MEL-5; > 100 µM (inactive) in the experiment with SN12C; 48.2 µM (inactive) in the experiment on T47D.

Regarding `Oc1ccc(Cc2cc(Cc3ccc(O)cc3)cc(Cc3ccc(O)cc3)c2)cc1`, the GI50 with 786-0 is > 50 µM (inactive); with ACHN, > 50 µM (inactive); with BT-549 it was > 50 µM (inactive); in the experiment on DU-145, > 50 µM (inactive); in the experiment with HCT-15 it was above 50 µM; in the experiment on HOP-62 it was > 50 µM (inactive). Also, the GI50 in the experiment on Hs-578T, in the experiment with KM12, in the experiment with M14, in the experiment on MCF7, in the experiment with MOLT-4 and in the experiment with NCI-H460 was > 50 µM (inactive) each time. Further, the GI50 with NCI/ADR-RES, in the experiment on SF-295, in the experiment with SK-MEL-2 and in the experiment on SN12C was > 50 µM (inactive) throughout.

For the compound `Cc1c(/C=N/NC(=S)N2CCCCC2)c(=O)n(-c2ccccc2)n1C`, the GI50 in the experiment on 786-0 was 73.5 µM (inactive); with ACHN, 32.4 µM (inactive); in the experiment on BT-549, > 100 µM (inactive); with CCRF-CEM, 23.2 µM (inactive); in the experiment on DU-145, > 100 µM (inactive); in the experiment with HCT-15, 23.1 µM. The GI50 in the experiment on HOP-62 is 88.9 µM (inactive); in the experiment on Hs-578T it was 39.3 µM (inactive); in the experiment with KM12, 97.1 µM (inactive); in the experiment on M14 it was 61.9 µM (inactive); with MCF7, 43.9 µM (inactive); with MOLT-4, 31.3 µM (inactive). Besides, the GI50 was > 100 µM (inactive) with NCI-H23; 37.1 µM (inactive) with NCI-H460; 28.9 µM (inactive) in the experiment on NCI/ADR-RES; 40.7 µM (inactive) with SF-295; 38.5 µM (inactive) in the experiment on SK-MEL-5.

Consider `COC(=O)C1CC(C=[N+](C)C)=C(SC)N1C(=O)OCc1ccccc1` (stereo unspecified), for which the GI50 in the experiment on 786-0 was > 100 µM (inactive); with ACHN, > 100 µM (inactive); with BT-549, > 100 µM (inactive); in the experiment on DU-145 it was > 100 µM (inactive); in the experiment on HCT-15, above 100 µM; in the experiment on HOP-62, > 100 µM (inactive). Further, the GI50 is > 100 µM (inactive) in the experiment with Hs-578T; > 100 µM (inactive) with KM12; > 100 µM (inactive) in the experiment on M14; 95.9 µM (inactive) with MCF7; > 100 µM (inactive) in the experiment with MOLT-4; > 100 µM (inactive) in the experiment with NCI-H23. The GI50 is 30.8 µM (inactive) in the experiment with NCI-H460; > 100 µM (inactive) in the experiment on NCI/ADR-RES; > 100 µM (inactive) with SF-295; > 100 µM (inactive) with SK-MEL-2; > 100 µM (inactive) with SK-MEL-5; > 100 µM (inactive) in the experiment with T47D.

With `C/C1=C/C(C)CC(C)OC(=O)C(C)NC(=O)C(Cc2ccc(O)c(I)c2)N(C)C(=O)C(C)NC(=O)C(C)C1` (stereo unspecified), the GI50 is < 0.01 µM (active) with 786-0; < 0.01 µM (active) with ACHN; < 0.01 µM (active) in the experiment on BT-549; < 0.01 µM (active) with CCRF-CEM; 0.0302 µM (active) in the experiment on DU-145; below 0.0164 µM in the experiment on HCT-15. In addition, the GI50 was < 0.01 µM (active) in the experiment with HOP-62; < 0.01 µM (active) in the experiment on Hs-578T; < 0.01 µM (active) in the experiment on KM12; < 0.015 µM (active) in the experiment on M14; < 0.0371 µM (active) in the experiment with MCF7; < 0.0187 µM (active) in the experiment with MOLT-4. The GI50 in the experiment on NCI-H23 is 0.311 µM (active); with NCI-H460 it was < 0.01 µM (active); in the experiment on NCI/ADR-RES, 0.026 µM (active); in the experiment on SF-295 it was < 0.0316 µM (active); in the experiment on SK-MEL-5, < 0.0133 µM (active); in the experiment with SN12C, < 0.0249 µM (active). In addition, in the experiment on T47D, the GI50 was 0.0653 µM (active).

Take `COc1cc(COC(=O)N(CC(=O)O)c2ccccc2)c([N+](=O)[O-])cc1OC`: the GI50 was > 100 µM (inactive) in the experiment on 786-0; > 100 µM (inactive) in the experiment on ACHN; > 100 µM (inactive) with BT-549; > 100 µM (inactive) with CCRF-CEM; > 100 µM (inactive) in the experiment on DU-145; above 100 µM in the experiment with HCT-15. Besides, the GI50 with HOP-62, in the experiment with Hs-578T, in the experiment with KM12, with M14, in the experiment with MCF7 and in the experiment on MOLT-4 was > 100 µM (inactive) in each case. For the same compound, the GI50 in the experiment with NCI-H23, with NCI-H460, in the experiment on NCI/ADR-RES, in the experiment on SF-295, with SK-MEL-5 and in the experiment with SN12C was > 100 µM (inactive) throughout. The GI50 with T47D was > 100 µM (inactive).

`CN(C)CCNC(=O)c1cnn(C)c1[N+](=O)[O-]`: the GI50 in the experiment with 786-0 is > 100 µM (inactive); in the experiment with ACHN, > 100 µM (inactive); in the experiment on BT-549, > 100 µM (inactive); in the experiment with CCRF-CEM, > 100 µM (inactive); in the experiment on DU-145, > 100 µM (inactive); with HCT-15 it was above 100 µM. Besides, the GI50 with HOP-62 was > 100 µM (inactive); in the experiment on Hs-578T it was > 100 µM (inactive); with KM12, 68.1 µM (inactive); in the experiment on M14, > 100 µM (inactive); in the experiment with MCF7, 63.4 µM (inactive); with MOLT-4, > 100 µM (inactive). For the same compound, the GI50 was 73.5 µM (inactive) in the experiment with NCI-H23; 77.4 µM (inactive) in the experiment with NCI-H460; > 100 µM (inactive) with SF-295; > 100 µM (inactive) in the experiment with SK-MEL-2; 44.5 µM (inactive) in the experiment with SK-MEL-5; > 100 µM (inactive) in the experiment on SN12C. For the same compound, the GI50 in the experiment with T47D was > 100 µM (inactive).

On to `N#Cc1c(Cl)c(C=O)c(=O)n2c1[nH]c1ccccc12`, for which the GI50 in the experiment with 786-0 was 55.7 µM (inactive); in the experiment with ACHN it was 84.3 µM (inactive); in the experiment with BT-549, 36.1 µM (inactive); in the experiment on CCRF-CEM it was 40.4 µM (inactive); with DU-145, 50.4 µM (inactive); with HCT-15, 57.5 µM. For the same compound, the GI50 is 39 µM (inactive) in the experiment on HOP-62; 45.1 µM (inactive) in the experiment with Hs-578T; 47.3 µM (inactive) in the experiment on KM12; 28.4 µM (inactive) in the experiment on M14; 33.3 µM (inactive) with MCF7; 29 µM (inactive) with MOLT-4. Besides, the GI50 in the experiment on NCI-H23 was 42.1 µM (inactive); in the experiment with NCI-H460, > 100 µM (inactive); in the experiment with NCI/ADR-RES it was 28.3 µM (inactive); in the experiment on SF-295, 35.9 µM (inactive); with SK-MEL-5, 91.8 µM (inactive); in the experiment on SN12C, 61.8 µM (inactive).

For the compound `CCOC(=O)c1cc(-c2ccc(Cl)cc2)c([N+](=O)[O-])n1C`, the GI50 with 786-0 was > 10 µM (inactive); with ACHN, > 10 µM (inactive); in the experiment on BT-549, > 10 µM (inactive); in the experiment with CCRF-CEM, > 10 µM (inactive); in the experiment on DU-145, > 10 µM (inactive); in the experiment on HCT-15, above 10 µM. Moreover, the GI50 with Hs-578T, with KM12, with M14, in the experiment with MOLT-4, in the experiment on NCI-H23 and in the experiment on NCI-H460 was > 10 µM (inactive) in each case. Moreover, the GI50 with SF-295 was > 10 µM (inactive); in the experiment on SK-MEL-2, > 10 µM (inactive); in the experiment on SN12C, > 10 µM (inactive); in the experiment with T47D, 2.05 µM (inactive).

With `C=CCCCC1CCCNC1=O` (stereo unspecified), the GI50 in the experiment on 786-0 was > 100 µM (inactive); in the experiment with ACHN, > 100 µM (inactive); with BT-549 it was > 100 µM (inactive); with DU-145 it was > 100 µM (inactive); with HCT-15, 19 µM; with HOP-62, > 100 µM (inactive). The GI50 with Hs-578T, in the experiment with KM12, in the experiment with M14, in the experiment on MCF7, in the experiment on MOLT-4 and in the experiment with NCI-H23 was > 100 µM (inactive) throughout. Further, the GI50 is 42.6 µM (inactive) in the experiment with NCI-H460; > 100 µM (inactive) in the experiment with SF-295; > 100 µM (inactive) in the experiment with SK-MEL-2; > 100 µM (inactive) with SK-MEL-5; > 100 µM (inactive) in the experiment on SN12C; > 100 µM (inactive) with T47D.

For `CC1OC1P(=O)(O)O` (stereo unspecified), the GI50 in the experiment on 786-0 was > 100 µM (inactive); with ACHN, > 100 µM (inactive); in the experiment on BT-549 it was > 100 µM (inactive); in the experiment on CCRF-CEM, 27.5 µM (inactive); with DU-145 it was > 100 µM (inactive); in the experiment with HCT-15, above 100 µM. Besides, the GI50 in the experiment with HOP-62, with Hs-578T, in the experiment with KM12, with MCF7, in the experiment on MOLT-4 and in the experiment with NCI-H23 was > 100 µM (inactive) each time. Besides, the GI50 in the experiment on NCI-H460, in the experiment on SF-295, in the experiment on SK-MEL-2, in the experiment with SK-MEL-5, with SN12C and with T47D was > 100 µM (inactive) throughout.

For the origin of these results see ChEMBL document CHEMBL1201862, “PubChem BioAssay data set” (2004).
